# Reference: EP1285918A1, “C7 Ester substituted taxanes as antitumor agents” (Florida State University Research Foundation, Inc., priority 2001, dated 2003)
# Where two headings read alike, the source gives them in different places.
# Experiments:
# [1] = system: DU 145 Human Prostate Carcinoma Xenografts; details: DU145
# Experimental: (§1) Other antitumor compounds were similarly formulated. […] The dosing volume was 0.3 ml per 20 g mouse.
# Male NCr-nude mice (implanted subcutaneously with 1 mm^3 DU145 prostate carcinoma fragments in the flank) were sorted into treatment groups of five mice each. […] Dosing was initiated on Day 1. The antitumor compounds were given i.v. at an estimated maximum tolerated dose (MTD) appropriate for each agent on a qd x 1 schedule (single administration of compound). […] The vehicle was administered i.v. to control mice in Group 1 on the qd x 1 schedule. The study was terminated on Day 91. Treatment groups are detailed in Table 5.
# (§2) The mean days of survival is the number of days after which a neoplasm reached a size of 1.5 g and the animal was euthanized. A complete response is obtained if the tumor is not palpable at the end of the study. A partial response is obtained if the tumor shrinks to a size smaller than its size on Day 1 of the study. […]
# [2] = system: Panc-1 Human Pancreatic Carcinoma Xenografts; details: 6 mice/group
# Experimental: (§3) Other antitumor compounds were similarly formulated. […] The dosing volume was 0.3 mL per 20 g mouse.
# Female NCr-nude mice (6-8 weeks of age, implanted subcutaneously with 1 mm^3 Panc-1 pancreatic carcinoma fragments in the flank) were sorted into treatment groups of six mice each. […] Dosing was initiated on Day 1. The antitumor compounds were given i.v. at an estimated maximum tolerated dose (MTD) appropriate for each agent on a qd x 1 schedule (single administration of compound). […] Taxotere was given i.v. at a dose of 70 mg/kg on a qd x 1 schedule. The vehicle was given i.v. to control mice in Group 1 in each test on Day 1 (qd x 1) schedule. Treatment groups are detailed in Table 12. The study was terminated on Day 63.
# (§4) The mean days of survival is the number of days after which a neoplasm reached a size of 1.5 g and the animal was euthanized. A complete response is obtained if the tumor is not palpable at the end of the study. A partial response is obtained if the tumor shrinks to a size smaller than its size on Day 1 of the study.
# [3] = system: A375 Human Melanoma Xenograft; details: 10 mice/group, study end Day 60
# Experimental: Female nu/nu mice (6-8 weeks of age; implanted subcutaneously with 1 mm^3 A375 melanoma fragments in the flank) were sorted into one control and four treatment groups of ten mice each (group mean tumor size of 96-98 mg). […] The study was terminated on Day 60.
# as §4, with “2.0” for “1.5”
# [4] = system: A375 Human Melanoma Xenografts; details: A375
# Experimental: as §1
# Female NCr-nude mice (implanted subcutaneously with 1 mm^3 A375 melanoma in the flank) were sorted into treatment groups of six mice each, except for the Taxotere group having seven mice each. […] Dosing was initiated on Day 1. The antitumor compounds were given i.v. at an estimated maximum tolerated dose (MTD) appropriate for each agent on a qd x 1 schedule (single administration of compound). […] Taxotere was given i.v. on a qd x 1 schedule at a dose of 70 mg/kg. The vehicle was administered i.v. to control mice in Group 1 on the qd x 1 schedule. Treatment groups are detailed in Table 9. The study was terminated on Day 60.
# as §2, with “The results are summarized in Table 10 and include mean days of survival (MDS), number of toxic deaths, number of survivors, number of complete or partial responses, and number with stable disease. The” for “The”, “tumor” for “neoplasm”, “2.0” for “1.5”
# [5] = system: VM46 Human Colon Carcinoma Xenografts; details: 72.6 mg/kg i.v. qd x 1, 6 mice/group, study end Day 64
# Experimental: as §3
# Female NCr-nude mice (6-8 weeks of age, implanted subcutaneously with 1 mm^3 VM46 colon carcinoma fragments in the flank) were sorted into treatment groups of six mice each. […] Dosing was initiated on Day 1. The antitumor compounds were given i.v. at an estimated maximum tolerated dose (MTD) appropriate for each agent on a qd x 1 schedule (single administration of compound). […] Taxotere was given i.v. at a dose of 70 mg/kg on a qd x 1 schedule. The vehicle was given i.v. to control mice in Group 1 in each test on Day 1 (qd x 1) schedule. Treatment groups are detailed in Table 13. The VM46 study ended on Day 64.
# as §2, with “The results are summarized in table 14 and include mean days of survival (MDS), number of toxic deaths, number of survivors, number of complete or partial responses, and number with stable disease. The” for “The”
# [6] = i.v. qd x 1 (mg/kg: Taxol 24, 1351 107.6, 1393 72.6, 1401 107.6, 1418 107.6, 1424 195.1), 5 mice/group, Day 91
# [7] = i.v. qd x 1 at estimated MTD, study end Day 63
# [8] = oral 36.5 mg/kg on Days 1, 15, 29 and 43 (q14dx3, cumulative 109.5 mg/kg)
# [9] = oral 73 mg/kg on Day 1, then 21.9 mg/kg on Days 11, 21, 31 and 41 (cumulative 160.6 mg/kg)
# [10] = i.v. qd x 1 (mg/kg: Taxol 24, 1351 107.6, 1393 72.6, 1401 107.6, 1418 107.6, 1424 195.1, Taxotere 70), Day 60
# [11] = Panc-1, i.v. qd x 1 (mg/kg: 1393 72.6, 1418 107.6), Day 63
compound,measurement,setting,value
"CCC(=O)OC1CC2OCC2(OC(C)=O)C2C(OC(=O)c3ccccc3)C3(O)CC(OC(=O)C(O)C(NC(=O)OC(C)(C)C)c4ccco4)C(C)=C(C(O)C(=O)C12C)C3(C)C (stereo not drawn) [Compound 1393, 3'-Desphenyl-3'-(2-furyl)-7-propionyl taxotere]",Survivors,[1]; [6],4
same,Survivors,[2]; [7],6
same,Survivors,[3]; 104 mg/kg single oral bolus,9
same,Survivors,[3]; [8],4
same,Survivors,[3]; [9],9
same,Survivors,[4]; [10],0
same,survival extension compared to Group 1 controls,"[4]; i.v. qd x 1 (mg/kg: Taxol 24, 1393 72.6, 1418 107.6, Taxotere 70)",250%
same,Survivors,[5],1
"CCC(=O)O[C@H]1C[C@H]2OC[C@@]2(OC(C)=O)[C@H]2[C@H](OC(=O)c3ccccc3)[C@]3(O)C[C@H](OC(=O)[C@H](O)[C@@H](NC(=O)OC(C)(C)C)c4ccco4)C(C)=C([C@@H](O)C(=O)[C@]12C)C3(C)C [Compound 1393, 3'-Desphenyl-3'-(2-furyl)-7-propionyl taxotere]",complete response rate,[1]; 1393 72.6 mg/kg i.v. qd x 1,60%
same,Complete Response,[1]; [6],3
same,Partial Response,[1]; [6],1
same,Stable Disease,[1]; [6],0
same,Mean Score,"[1]; i.v. qd x 1 (mg/kg: Taxol 24, 1351 107.6, 1393 72.6, 1401 107.6, 1418 107.6, 1424 195.1), tumor score 1 to 10, group mean",8 ± 1.5
same,Complete Response,[2]; [11],1
same,Partial Responses,[2]; [11],4
same,Toxic Deaths,[2]; [7],0
same,Complete Response,[3]; 104 mg/kg single oral bolus,9
same,Partial Response,[3]; 104 mg/kg single oral bolus,0
same,Stable Disease,[3]; 104 mg/kg single oral bolus,0
same,Toxic Deaths,[3]; 104 mg/kg single oral bolus,0
same,Complete Response,[3]; [8],0
same,Partial Response,[3]; [8],1
same,Stable Disease,[3]; [8],3
same,Toxic Deaths,[3]; [8],0
same,Complete Response,[3]; [9],8
same,Partial Response,[3]; [9],1
same,Stable Disease,[3]; [9],0
same,Toxic Deaths,[3]; [9],1
same,Complete Response,[4]; [10],0
same,Partial Response,[4]; [10],0
same,Stable Disease,[4]; [10],0
same,Toxic Deaths,[4]; [10],0
same,Mean Score,"[4]; i.v. qd x 1 (mg/kg: Taxol 24, 1351 107.6, 1393 72.6, 1401 107.6, 1418 107.6, 1424 195.1, Taxotere 70), tumor score 1 to 10, group mean",3±0
same,Complete Response,[5],1
same,Mean Score,[5],3.2 ± 1.4
same,Partial Response,[5],0
same,Stable Disease,[5],0
same,Toxic Deaths,[5],0
same,MDS (n),[5]; days until tumor reached 1.5 g,46.2 ± 6.1 (5) days
